Holding throughout (format): cell-based
In experiment [1] the test system is RPE1 (human immortalized retinal pigment epithelial) cell line. As to the kind of experiment: MTT assay on normal cells for safety/selectivity. As to conditions: RPE-1, read-out: IC50, μM ± SD, RPE1. How it is done:
(§1) Antiproliferation properties against normal RPE1 (human immortalized retinal pigment epithelial) cell line were also considered for safety/selectivity index (SI) determination of each respective agent synthesized (Table 1, Supplementary Figs. S61–S64). […]
(§2) was aspirated, fresh complete medium was added and cells were incubated with different concentrations of the tested compound to give a final concentration of [50, 25, 12.5 and 6.25 μM “in addition to 3.125, 1.56 and 0.78 μM in case of high potent a nalogs”). 0.5% DMSO was used as a negative control. Triplicate wells were prepared for each individual dose. After 72 h of incubation, medium was aspirated, 40 μl MTT salt (2.5 mg ml -1) was added to each well and incubated for further 4 h at 37 °C. To stop the reaction and dissolve the formed crystals, 150 μl of 10% sodium dodecyl sulfate (SDS) in deionized water was added to each well and incubated overnight at 37 °C. The absorbance was then measured at 570 nm and a reference wavelength of 595 nm.
(§3) Data were collected as mean values for experiments performed in triplicates for each individual dose which had been measured by MTT assay. Control experiments did […]
(§4) The cell surviving fraction was calculated according to the following equation.
(§5) Surviving fraction = Opticaldensity(O.D.)oftreatedcells
(§6) The agents synthesized were also tested against RPE1 (normal human immortalized retinal pigment epithelial cell line) cell (in DMEM -F12 medium) to determine the toxicity/selectivity towards normal cells relative to the cancer cell lines […]
(§7) The IC50 (concentration required to produce 50% inhibition of cell growth compared to the control experiment) was determined using Graph-Pad PRISM version-5 software. Statistical calculations for determination of the mean and standard division (SD) values were determined by SPSS 16 so ftware. The observed anti-proliferative properties are presented in Table 1 ( Supplementary Figs. S61‒S64). […]
A general note: Formazan colour is commonly taken as a measure of viable cells.

Experiment [2] concerns MCF7 (breast) carcinoma cell line. As to the kind of experiment: MTT antiproliferation assay, MCF7.
Source text: as §1
(§8) All the biological studies conducted obey the standards and approved by the Research Ethics Committee, National Research Centre, Egypt (associated with project ID:
(§9) Antiproliferation properties
(§10) The synthesized compounds 12a‒j were screened for their antiproliferation properties against HCT116 (colon), MCF7 (breast) and PaCa2 (pancreatic) cancer cell lines by the standard mitochondrial dependent reduction of yellow MTT [3 -(4,5-dimethylthiazol-2- […]
(§11) considered as standard reference/drug. Cells were suspended in DMEM medium for MCF7, PaCa-2 and McCoy’s 5A for HCT116 in addition to 1% antibiotic–antimycotic mixture (10000 μg ml-1 potassium penicillin, 10000 μg ml-1 streptomycin sulfate and 25 μg ml-1 amphotericin B), 10% fetal bovine serum and 1% L-glutamine at 37 °C, under 5% CO2 and 95% humidity. Cells were seeded at concentration of 30000 cells per well in fresh complete growth medium in 96-well tissue culture microtiter plates for 24 h. Media […]
as §2, §3, §4, §5, §6, §7

The next experiment has as its target T1, VEGFR-2 (Homo sapiens, UniProt P35968).
T1 construct: lysed cells; endogenous in cells
As to the kind of experiment: VEGFR-2 inhibitory properties by western blotting. How it is done: VEGFR-2 inhibitory properties […]
standard/drug) was determined at 10 μM by the western blotting technique obeying the manufacturer’s instruction (Santa Cruz Biotechnology, Inc .).5
Protein extraction procedure
The ReadyPrepTM protein extraction kit (total protein) provided by Bio-Rad Inc.
(Catalog #163-2086) employed by the manufacturer, was added to each sample of the lysed cells. Bradford Protein Assay Kit (SK3041) for quantitative protein analysis was provided by Bio-basic Inc. (Markham Ontario L3R 8T4 Canada). A Bradford assay was performed according to manufacturer’s instructions to determine protein concentration in each sample. 20 μg protein concentration of each sample was then loaded with an equal volume of 2x Laemmli sample buffer containing 4% SDS, 10% 2-mercaptoehtanol, 20% glycerol, 0.004% bromophenol blue and 0.125 M Tris HCl. The pH was checked and brought to 6.8. Each previous mixture was boiled at 95°C for 5 min to ensure denaturation of protein before loading on polyacrylamide gel electrophoresis.
Protein separation by electrophoresis
Samples were separated on a polyacrylamide gel; the procedure was abbreviated as SDS-PAGE form Sodium Dodecyl Sulfate PolyAcrylamide Gel Electrophoresis, which is a standard technique for separating proteins according to their molecular weight.
Polyacrylamide gels were performed using TGX Stain-Free™ FastCast™ Acrylamide Kit (SDS-PAGE), which was provided by Bio-Rad Laboratories inc Cat # 161-0181. The SDS-PAGE TGX Stain-Free FastCast was prepared according to manufacturer’s […]
Protein blotting (transfer of proteins from the gel to the membrane)
The gel was assembled in transfer sandwich from below to above (filter paper, PVDF membrane, gel and filter paper). The sandwich was placed in the transfer tank with 1x transfer buffer, which is composed of 25 mM Tris and 190 mM glycine and 20% methanol. Then, the blot was run for 7 min . at 25 V to allow protein bands transfer from gel to membrane using BioRad Trans-Blot Turbo.
The membrane was blocked in tris -buffered saline with Tween 20 (TBST) buffer and 3% bovine serum albumin (BSA) at room temperature for 1 hr. The components of blocking […]
buffer were as follow; 20 mM Tris pH 7.5, 150 mM NaCl, 0.1% Tween 20 and 3% bovine serum albumin (BSA).
Incubation with the primary antibody
Primary antibody of VEGFR2 was purchased. Primary antibody was diluted in TBST according to manufactured instructions.
(In general: A western blot detects proteins with antibodies after separation by electrophoresis.)

In experiment [3] the test system is PaCa2 (pancreatic) carcinoma cell line. As to the kind of experiment: MTT antiproliferation assay, PaCa2.
Source text: as §1, §8, §9, §10, §11, §2, §3, §4, §5, §6, §7

Experiment [4] deals with HCT116 (colon) carcinoma cell line. As to the kind of experiment: MTT antiproliferation assay, HCT116.
Source text: as §1, §8, §9, §10, §11, §2, §3, §4, §5, §6, §7

We go through 1 compound from paper PMC11699130, “Design and synthesis of antiproliferative 2-oxoindolin-3-ylidenes incorporating urea function with potential VEGFR-2 inhibitory properties” (Scientific Reports, 2025).

As usually defined, the IC50 is the point on the concentration scale where inhibition reaches its midpoint. The inhibition is the percentage by which the read-out fell short of the control.

T1 sequence (P35968 20-1356): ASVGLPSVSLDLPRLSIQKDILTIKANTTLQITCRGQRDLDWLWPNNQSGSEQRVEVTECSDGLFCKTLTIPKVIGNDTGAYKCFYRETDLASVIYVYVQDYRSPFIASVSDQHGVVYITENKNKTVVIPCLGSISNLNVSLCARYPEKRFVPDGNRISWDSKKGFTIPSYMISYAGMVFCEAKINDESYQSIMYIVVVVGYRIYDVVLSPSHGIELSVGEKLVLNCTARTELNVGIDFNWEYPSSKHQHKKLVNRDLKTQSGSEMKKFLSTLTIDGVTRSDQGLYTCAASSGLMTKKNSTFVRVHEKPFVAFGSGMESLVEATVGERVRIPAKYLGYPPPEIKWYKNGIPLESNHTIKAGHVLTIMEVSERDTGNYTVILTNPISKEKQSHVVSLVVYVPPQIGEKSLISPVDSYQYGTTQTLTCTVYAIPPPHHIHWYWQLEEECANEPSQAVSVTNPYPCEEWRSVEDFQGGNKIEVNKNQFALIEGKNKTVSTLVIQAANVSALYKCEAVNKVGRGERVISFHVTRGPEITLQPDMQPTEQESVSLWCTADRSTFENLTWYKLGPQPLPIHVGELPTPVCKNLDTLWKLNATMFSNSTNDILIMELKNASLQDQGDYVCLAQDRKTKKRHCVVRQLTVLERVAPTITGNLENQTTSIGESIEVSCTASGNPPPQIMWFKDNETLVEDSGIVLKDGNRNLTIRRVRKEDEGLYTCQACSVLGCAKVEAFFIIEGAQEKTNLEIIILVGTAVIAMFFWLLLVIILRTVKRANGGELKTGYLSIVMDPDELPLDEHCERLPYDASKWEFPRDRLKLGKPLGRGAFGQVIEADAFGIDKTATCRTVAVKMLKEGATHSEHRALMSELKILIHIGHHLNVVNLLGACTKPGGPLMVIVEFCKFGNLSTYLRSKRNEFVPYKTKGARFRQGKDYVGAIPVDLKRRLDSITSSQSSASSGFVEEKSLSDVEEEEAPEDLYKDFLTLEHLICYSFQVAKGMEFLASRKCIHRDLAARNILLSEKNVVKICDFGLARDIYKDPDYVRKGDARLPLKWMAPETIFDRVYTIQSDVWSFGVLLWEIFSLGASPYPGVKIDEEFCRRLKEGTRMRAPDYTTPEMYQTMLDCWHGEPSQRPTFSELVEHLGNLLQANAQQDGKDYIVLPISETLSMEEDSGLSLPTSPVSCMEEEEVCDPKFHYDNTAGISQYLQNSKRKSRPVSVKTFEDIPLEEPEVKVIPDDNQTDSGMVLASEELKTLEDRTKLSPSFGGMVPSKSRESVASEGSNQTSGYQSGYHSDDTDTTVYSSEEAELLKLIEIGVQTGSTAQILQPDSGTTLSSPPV

With `O=C(Nc1ccccc1)Nc1cccc(C(=O)/C=C2/C(=O)Nc3ccc(Cl)cc32)c1` [Compound 12e, (E)-1-{3-[2-(5-Chloro-2-oxoindolin-3-ylidene)acetyl]phenyl}-3-phenylurea], the IC50 is 14.6 ± 0.316 µM in experiment [1]; 3.91 ± 0.78 µM in experiment [2] (Homo sapiens, MTT, 72 h incubation, MCF7 (breast), read-out: IC50, μM ± SD, MCF7); 7 ± 1.11 µM in experiment [3] (PaCa-2, MTT, 72 h incubation, PaCa2 (pancreatic), read-out: IC50, μM ± SD, PaCa2); 11.9 ± 2.53 µM in experiment [4] (Homo sapiens, HCT-116, MTT, 72 h incubation, HCT116 (colon), read-out: IC50, μM ± SD, HCT116). Further, in experiment [2] (in brackets after IC50, normal RPE1 relative to MCF7), the “SI (safety/selectivity index), MCF7” value worked out at 3.738. Besides, on VEGFR-2 (VEGFR-2 western blot band, normalised to beta actin, at 10 μM, control RQ 3.290), the “Relative quantification (RQ)” value was determined as 0.538. Moreover, the inhibition at 10 µM on VEGFR-2 (western blotting, read-out: % Inhibition against VEGFR-2) amounted to 83.6%. Also, the “SI (safety/selectivity index), PaCa2” value in experiment [3] (in brackets after IC50, normal RPE1 relative to PaCa2) is 2.087. The “SI (safety/selectivity index), HCT116” value in experiment [4] (in brackets after IC50, normal RPE1 relative to HCT116) was determined as 1.229.
